Reference: US8420670B2 (Abbott Laboratories, priority 2007, dated 2013)
Structures can show the parent of a compound that is named as a salt.

How the values were obtained:
human GlyT1c transporter = target: T1, human GlyT1c transporter (Homo sapiens, UniProt P48067); assay: [3H]-(R)-NPTS radioligand binding assay using recombinant hGlyT1 expressing cell membranes; conditions: 0.5 nM [3H]-(R)-NPTS, apparent Ki via Cheng-Prusoff, read-out: [3H]-(R)-NPTS bindung Ki
T1 construct: expressed in transfected cells; host or cells: recombinant hGlyT1-expressing cells
T1 sequence (P48067 1-706): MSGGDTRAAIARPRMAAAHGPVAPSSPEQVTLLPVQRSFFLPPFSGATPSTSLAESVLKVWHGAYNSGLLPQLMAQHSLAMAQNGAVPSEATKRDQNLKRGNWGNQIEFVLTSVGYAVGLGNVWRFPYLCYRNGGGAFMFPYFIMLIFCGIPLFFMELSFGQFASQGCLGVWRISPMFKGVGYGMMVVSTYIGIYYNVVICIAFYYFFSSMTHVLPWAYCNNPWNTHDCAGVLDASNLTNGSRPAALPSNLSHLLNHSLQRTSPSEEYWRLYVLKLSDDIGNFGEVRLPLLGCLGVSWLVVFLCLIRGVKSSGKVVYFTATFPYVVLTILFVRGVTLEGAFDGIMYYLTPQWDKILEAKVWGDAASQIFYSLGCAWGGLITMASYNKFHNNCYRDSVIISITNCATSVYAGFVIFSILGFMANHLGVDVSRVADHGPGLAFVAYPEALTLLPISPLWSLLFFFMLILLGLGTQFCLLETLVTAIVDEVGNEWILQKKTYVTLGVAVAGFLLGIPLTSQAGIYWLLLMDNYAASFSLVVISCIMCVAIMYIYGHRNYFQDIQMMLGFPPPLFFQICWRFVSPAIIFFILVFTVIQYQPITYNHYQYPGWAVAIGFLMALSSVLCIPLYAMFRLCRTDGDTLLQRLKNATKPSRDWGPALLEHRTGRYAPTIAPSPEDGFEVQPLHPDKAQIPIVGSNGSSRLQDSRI
Protocol: 2. [^3H]-(R)-NPTS Radioligand Binding Assays using Recombinant hGlyT1 Expressing Cell Membranes:
Radioligand binding to human GlyT1c transporter-expressing membranes was measured in duplicate in a total volume of 200 μl in 96-well plates. To 100 μl of membrane suspension (yielding a final membrane protein concentration of 50 μg/ml) in assay buffer (120 mM NaCl, 2 mM KCl, 10 mM Hepes, 1 mM MgCl2, 1 mM CaCl2, pH 7.5) […] of [^3H]-(R)NPTS (0.5 nM final) were added in assay buffer. For competition experiments 10 μl of buffer or unlabeled compound solution obtained from dilution series of test compounds in DMSO followed. An intermediate 1:10 dilution in assay buffer yielded a final DMSO concentration of 1%. Non-specific binding was determined in the presence of 10 μM Org24598 (or its racemate Org24461) for [^3H]-(R)-NPTS. After incubation at room temperature for 1 h, the incubation mixture was harvested (Tomtec Mach III U Harvester) through 96-well GF/B filter plates (PerkinElmer), presoaked for 1 h with 40 μl per well of 0.1% polyethylene-imine (PEI). After washing twice with ice-cold 50 mM Tris-HCl pH 7.4 buffer, drying and addition of 35 μl scintillator (BetaplateScint, PerkinElmer) per well followed. The radioactivity was determined by liquid scintillation spectrometry in a MicroBeta (PerkinElmer) plate counter.
Data analysis: For binding of [^3H]-(R)-NPTS to cell membranes, the calculation of Kd and Bmax values from the saturation binding assays and the IC50 values from the displacement binding was performed by iterative non-linear regression analysis adapted from the ‘Ligand’ program (Munson and Rodbard, 1980). Radioligand displacement curves in absence or in presence of increasing concentrations of tested compounds were fitted using a one-site fit and the apparent Ki values were calculated from the IC50 values using the Cheng-Prusoff equation (Cheng and Prusoff 1973).

Human GlyT1c = target: T2, Human GlyT1c (Homo sapiens, UniProt P48067); assay: Glycine uptake in recombinant hGlyT1 expressing cells; assay type: cell-based; conditions: hGlyT1c_5_CHO cells; [3H]-glycine uptake, 60-120 min
T2 construct: expressed in transfected cells; host or cells: CHO (hGlyT1c_5_CHO clone)
T2 sequence (P48067 1-706): T1 sequence (P48067 1-706)
Protocol: 1. Glycine Uptake in Recombinant hGlyT1 Expressing Cells:
Human GlyT1c expressing recombinant hGlyT1c—5_CHO cells were plated at 20,000 cells per well in 96 well Cytostar-T scintillation microplates (Amersham Biosciences) and cultured to sub-confluency for 24 h. For glycine uptake assays the culture medium was aspirated and the cells were washed once with 100 μl HBSS (Gibco BRL, #14025-050) with 5 mM L-Alanine (Merck #1007). 80 μl HBSS buffer were added, followed by 10 μl inhibitor or vehicle (10% DMSO) and 10 μl [^3H]-glycine (TRK71, Amersham Biosciences) to a final concentration of […] for initiation of glycine uptake. The plates were placed in a Wallac Microbeta (PerkinElmer) and continuously counted by solid phase scintillation spectrometry during up to 3 hours. Nonspecific uptake was determined in the presence of 10 μM Org24598. IC50 calculations were made by four-parametric logistic nonlinear regression analysis (GraphPad Prism) using determinations within the range of linear increase of [^3H]-glycine incorporation between 60 and 120 min.

Ki (human GlyT1c transporter) [µM]	IC50 (Human GlyT1c) [µM]	SMILES
≤ 0.1	≤ 0.1	CSc1cccc2c(NCc3ccc(Cl)c(Cl)c3)cc(C)nc12 [Example 88, (3,4-Dichlorobenzyl)-(2-methyl-8-methylsulfanylquinolin-4-yl)-amine]
≤ 0.1	≤ 1	Cc1cc(NCc2ccc(Cl)c(Cl)c2)c2cccc(OCCn3cccn3)c2n1 [Example 47, (3,4-Dichlorobenzyl)-[2-methyl-8-(2-pyrazol-1-yl-ethoxy)-quinolin-4-yl]-amine hydrochloride]
≤ 0.1	≤ 10	Cc1cc(NCc2ccc(Cl)cc2Cl)c2cccc(OCCN)c2n1 [Example 36, [8-(2-Aminoethoxy)-2-methylquinolin-4-yl]-(2,4-dichlorobenzyl)-amine]
≤ 1	≤ 1	CC(=O)Nc1cccc2c(NCc3ccc(Cl)c(Cl)c3)cc(C)nc12 [Example 13, N-[4-(3,4-Dichlorobenzylamino)-2-methylquinolin-8-yl]-acetamide]
≤ 0.1	≤ 0.1	Cc1cc(NCc2ccc(Cl)c(Cl)c2)c2cccc(N)c2n1 [Example 5, N*4*-(3,4-Dichlorobenzyl)-2-methylquinoline-4,8-diamine]
≤ 1	≤ 10	Cc1cc(NCc2ccc(Cl)c(Cl)c2)c2cccc(S(=O)(=O)N(C)C)c2n1 [Example 1, 4-(3,4-Dichlorobenzylamino)-2-methylquinoline-8-sulfonic dimethylamide]
≤ 0.1	≤ 0.1	Cc1cc(NCc2ccc(Cl)c(Cl)c2)c2cccc(OCCNS(=O)(=O)C(F)(F)F)c2n1 [Example 29, N-{2-[4-(3,4-Dichlorobenzylamino)-2-methylquinolin-8-yloxy]-ethyl}-C,C,C-trifluoromethanesulfonamide]
≤ 0.01	≤ 0.01	CCS(=O)(=O)NCCOc1cccc2c(NCc3ccc(Cl)c(Cl)c3)cc(C)nc12 [Example 27, Ethanesulfonic {2-[4-(3,4-Dichloro-benzylamino)-2-methylquinolin-8-yloxy]-ethyl}-amide]
≤ 0.1	≤ 1	Cc1cc(NCc2ccc(Cl)c(Cl)c2)c2cccc(Cl)c2n1 [Example 81, (8-Chlor-2-methylquinolin-4-yl)-(3,4-dichlorobenzyl)-amine]
≤ 0.1	≤ 0.1	COCCOc1cccc2c(NCc3ccc(Cl)c(Cl)c3)cc(C)nc12 [Example 49, (3,4-Dichlorobenzyl)-[8-(2-methoxyethoxy)-2-methylquinolin-4-yl]-amine]

Further lines, the compound ahead of its results:

SMILES	Ki (human GlyT1c transporter) [µM]	IC50 (Human GlyT1c) [µM]
Cc1cc(NCc2ccc(Cl)c(Cl)c2)c2cccc(S(=O)(=O)NC(C)C)c2n1 [Example 3, 4-(3,4-Dichlorobenzylamino)-2-methyl-quinoline-8-sulfonic isopropylamide]	≤ 1	≤ 10
Cc1cc(NCc2ccc(Cl)c(Cl)c2)c2cccc(N3CCNCC3)c2n1 [Example 18, (3,4-Dichlorobenzyl)-(2-methyl-8-piperazin-1-yl-quinolin-4-yl)-amine dihydrochloride]	≤ 0.1	≤ 1
COc1cccc2c(NC(c3ccncc3)c3ccc(Cl)cc3)cc(C)nc12 (stereo not drawn) [Example 73, [(4-Chlorophenyl)-pyridin-4-ylmethyl]-(8-methoxy-2-methylquinolin-4-yl)-amine]	≤ 1	≤ 1
Cc1cc(NCc2ccc(Cl)c(Cl)c2)c2cccc(OCCNS(=O)(=O)Cc3ccccc3)c2n1 [Example 32, N-{2-[4-(3,4-Dichloro-benzylamino)-2-methylquinolin-8-yloxy]-ethyl}-C-phenyl-methanesulfonamide]	≤ 0.1	≤ 1
Cc1cc(N[C@@H](c2ccccc2)[C@@H]2CCCCN2C)c2ccccc2n1 [Example 61, (S)—((S)-1-Methylpiperidin-2-yl)-phenylmethyl]-(2-methylquinolin-4-yl)-amine dihydrochloride]	≤ 10	≤ 10
COc1cccc2c(NC(c3ccc(Cl)cc3)c3nccn3C)cc(C)nc12 (stereo not drawn) [Example 70, [(4-Chlorophenyl)-(1-methyl-1H-imidazol-2-yl)-methyl]-(8-methoxy-2-methylquinoline-4-yl)amine]	≤ 10	≤ 100
COc1cccc2c(NC(CNCc3ccccc3)c3ccccc3)cc(C)nc12 (stereo not drawn) [Example 78, N*2*-Benzyl-N*1*-(8-methoxy-2-methylquinolin-4-yl)-1-phenylethane-1,2-diamine]	≤ 1	≤ 10
Cc1cc(NCc2cccc(Cl)c2Cl)c2ccccc2n1 [Example 91, (2,3-Dichloro-benzyl)-(2-methylquinolin-4-yl)-amine]	≤ 10	≤ 10
C=CCN1CCCC[C@H]1[C@@H](Nc1cc(C)nc2c(OCCN)cccc12)c1ccccc1 [Example 34, [(S)—((S)-1-Allylpiperidin-2-yl)-phenylmethyl]-[8-(2-aminoethoxy)-2-methylquinolin-4-yl]-amine]	≤ 10	≤ 100
CN(C)c1cc(NCc2ccc(Cl)cc2Cl)c2ccccc2n1 [Example 96, N*4*-(2,4-Dichlorobenzyl)-N*2*,N*2*-dimethylquinoline-2,4-diamin]	≤ 1	≤ 10
Cc1cc(NCc2ccc(Cl)c(Cl)c2)c2cccc(OCCNS(=O)(=O)c3ccccc3)c2n1 [Example 23, hydrochloride]	≤ 0.01	≤ 1
Cc1cc(NCc2ccc(Cl)c(Cl)c2)c2cccc(S(N)(=O)=O)c2n1 [Example 2, 4-(3,4-Dichlorobenzylamino)-2-methylquinoline-8-sulfonamide]	≤ 1	≤ 1000
COc1cccc2c(NC(CNC(C)C)c3ccccc3)cc(C)nc12 (stereo not drawn) [Example 79, N*2*-Isopropyl-N*1*-(8-methoxy-2-methylquinolin-4-yl)-1-phenylethane-1,2-diamine]	≤ 10	≤ 10
Cc1cc(NCc2ccc(Cl)c(Cl)c2)c2cccc(NS(C)(=O)=O)c2n1 [Example 12, N-[4-(3,4-Dichlorobenzylamino)-2-methylquinolin-8-yl]-methanesulfonamide]	≤ 1	≤ 10
COc1cccc2c(NC(CN3CCOCC3)c3ccccc3)cc(C)nc12 (stereo not drawn) [Example 62, (8-Methoxy-2-methylquinolin-4-yl)-(2-morpholin-4-yl-1-phenyl)-ethylamine]	≤ 10	≤ 10
CSc1cccc2c(NCc3ccc(Cl)cc3)cc(C)nc12 [Example 83, (4-Chlorobenzyl)-(2-methyl-8-methylsulfanylquinolin-4-yl)-amine]	≤ 1	≤ 1
Cc1cc(NCc2ccc(Cl)c(Cl)c2)c2cccc(NS(=O)(=O)c3ccccc3)c2n1 [Example 8, N-[4-(3,4-Dichlorobenzylamino)-2-methylquinolin-8-yl]-phenylsulfonamide]	≤ 1	≤ 10
